Literature values as cited in patent publication US20240009433A1, “METHODS FOR CONTINUOUS ORAL DRUG DELIVERY” (SynAgile Corporation, priority 2020, published 2024).

Columns and labels:
[1] = in vivo
[2] = in vivo; remark: listed apart in the source
[3] = in vivo; remark: listed apart in the source

Structure (SMILES) | plasma half-life [1] [h] | crossing of the blood-brain barrier [2] | hepatotoxicity [3]
CCN(CC)C(=O)/C(C#N)=C/c1cc(O)c(O)c([N+](=O)[O-])c1 [Entacapone] | 0.4 to 0.7 | does not cross the blood-brain barrier | 
Cc1ccc(C(=O)c2cc(O)c(O)c([N+](=O)[O-])c2)cc1 [Tolcapone] | 2 to 3 | crosses the barrier | use is limited by its hepatotoxicity
